Data as given in patent publication US20230110113A1, “FGFR TYROSINE KINASE INHIBITORS FOR THE TREATMENT OF HIGH-RISK NON-MUSCLE INVASIVE BLADDER CANCER” (Janssen Pharmaceutica NV, priority 2020, published 2023).

Legend:
[1] = test system: T24 bladder cancer cell line (WT); details: T24, FGFR3 WT
[2] = test system: EJ28 bladder cancer cell line (FGFR status unknown); details: EJ28, FGFR3 status unknown
[3] = test system: UM-UC-1 bladder cancer cell line (WT); details: MTT

For `COc1cc(OC)cc(N(CCNC(C)C)c2ccc3ncc(-c4cnn(C)c4)nc3c2)c1` [erdafitinib, N-(3,5-dimethoxyphenyl)-N′-(1-methylethyl)-N-[3-(1-methyl-1H-pyrazol-4-yl)quinoxalin-6-yl]ethane-1,2-diamine], the “Sensitivity of cell line to erdafitinib (in words)” value [1] was “not sensitive”, the “Sensitivity of cell line to erdafitinib (in words)” value [2] was “not sensitive” and the “Cell viability max effect” value [3] was 80%.
